Experimental data: patent publication US6355799B1, “Substituted benzene compounds, process for their preparation, and herbicidal and defoliant compositions containing them” (ISK Americas Incorporated, priority 1997, dated 2002)

Legend:
Type in all cases: in vivo
[1] = tested on: redroot pigweed (Amaranthus retroflexus, AMARE); assay: Pre-emerge test, greenhouse herbicide activity screening; settings: pre-emerge; for Pre-emerge Herbicidal Activity AMARE (phytotoxicity rating, scale 0-100): rated 14 days after application, 0 = no damage, 100 = complete death; for phytotoxicity rating AMARE: 14 days after application, rating scale 0-100
Method in brief: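 Herbicidal damage is scored 0 (none) to 100 (complete plant death) two weeks after a simulated field spray. Rates span 15–1000 g ai/ha, delivered in acetone at 187 l/ha. For post-emergence treatments, plants have 2–3 leaves and the spray carries 0.25% v/v non-ionic surfactant.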

[2] = tested on: cocklebur (Xanthium strumarium, XANST); assay: as above; settings: 14 days after application, rating scale 0-100
[3] = tested on: common ragweed (Ambrosia artemisizfolia L., AMBEL); assay: as above; settings: pre-emerge, rated 14 days after application, 0 = no damage, 100 = complete death
Method in brief: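 Compounds in acetone were track-sprayed at 187 l/ha, 15–1000 g ai/ha, onto sandy loam pots. Pre-emerge seeds were sown one day before spraying, with surface watering afterwards. Post-emerge plants were at the 2–3 leaf stage and sprayed with 0.25% v/v non-ionic surfactant. Injury was rated 0–100 at 14 days.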

[4] = tested on: barnyardgrass (Echinochloa crus-galli, ECHCG); assay: Post-emerge test, greenhouse herbicide activity screening; settings: Echinochloa crus-galli, post-emergence, 336 h, phytotoxicity rating 0-100 (0 no damage, 100 complete death), 14 days after application, read-out: Post-emerge Herbicidal Activity ECHCG
Method in brief: (§1)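 Rating: 0–100 visual injury, 14 DAA. Application: acetone, 187 l/ha, 15–1000 g ai/ha, flat-fan track sprayer with nozzle 40–45 cm above soil or canopy. Post-emerge runs used 0.25% v/v surfactant on 2–3 leaf plants.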

[5] = tested on: common ragweed (Ambrosia artemisizfolia L., AMBEL); assay: as above; settings: phytotoxicity rating 0-100 (0 no damage, 100 complete death), 14 days after application
Method in brief: as §1

[6] = tested on: ivyleaf morningglory (Ipomoea hederacea, IPOHE); assay: as above; settings: Ipomoea, post-emergence, 336 h, phytotoxicity rating 0-100 (0 no damage, 100 complete death), 14 days after application, read-out: Post-emerge Herbicidal Activity IPOHE
Method in brief: as §1

weed species = assay: Standard greenhouse herbicide activity screening, overall statements on weeds; settings: comparison with compound 2 of Japanese Pat. No. Toku Kai Hei 5-25144 (Table XIX)
Excerpt: A standard greenhouse herbicide activity screening system was used to evaluate the herbicidal efficacy and crop safety of these test compounds. Seven broadleaf weed species including redroot pigweed (Amaranthus retroflexus, AMARE, velvetleaf (Abutilon theophrasti, ABUTH), sicklepod (Cassia obtusifolia, CASOB), ivyleaf morningglory (Ipomoea hederacea, IPOHE), lambsquarters (Chenopodium album, CHEAL), common ragweed (Ambrosia artemisizfolia L., AMBEL), and cocklebur (Xanthium strumarium, XANST) were used as test species. Four grass weed species including green foxtail (Setaria viridis, SETVI), barnyardgrass (Echinochloa crus-galli, ECHCG), johnsongrass (Sorghum halepense, SORHA), and large crabgrass (Digitaria sanguinalis, DIGSA) were also used. In addition, three crop species, field corn (Zea mays L., var. Dekalb 535, CORN), soybean (Glycine max L., var. Pella 86, SOY), and is upland rice (Oryza sp., var. Tebonnet, RICE) were included.
All plants were grown in 10 cm square plastic pots which were filled with a sandy loam soil mix. For pre-emerge tests, seeds were planted one day prior to application of the test compounds. For post-emerge tests, seeds were planted 8-21 days prior to the test to allow emergence and good foliage development prior to application of the test substances. […]
At 14 days after application of the test materials, phytotoxicity ratings were recorded. […]

COc1c(Cl)cc(F)c(-n2c(=O)cc(C(F)(F)F)n(C)c2=O)c1N [Compound 1-4, 3-(2-amino-4-chloro-6-fluoro-3-methoxyphenyl)-1-methyl-6-trifluoromethyl-2,4(1H, 3H)-pyrimidinedione]
Pre-emerge Herbicidal Activity AMARE (phytotoxicity rating, scale 0-100) ([1]; 63 g ai/ha): 100 | Pre-emerge Herbicidal Activity AMARE (phytotoxicity rating, scale 0-100) ([1]; 250 g ai/ha): 100 | phytotoxicity rating AMARE ([1]; 3.9 g ai/ha): 30 | phytotoxicity rating AMARE ([1]; 7.8 g ai/ha): 100 | phytotoxicity rating AMARE ([1]; 15.6 g ai/ha): 90 | phytotoxicity rating AMARE ([1]; 31.3 g ai/ha): 100 | phytotoxicity rating AMARE ([1]; 62.5 g ai/ha): 100 | phytotoxicity rating AMARE ([1]; 125 g ai/ha): 100 | phytotoxicity rating AMARE ([1]; 250 g ai/ha): 100 | phytotoxicity rating XANST ([2]; 3.9 g ai/ha): 0 | phytotoxicity rating XANST ([2]; 7.8 g ai/ha): 0 | phytotoxicity rating XANST ([2]; 15.6 g ai/ha): 20 | phytotoxicity rating XANST ([2]; 31.3 g ai/ha): 10 | phytotoxicity rating XANST ([2]; 62.5 g ai/ha): 50 | phytotoxicity rating XANST ([2]; 125 g ai/ha): 50 | phytotoxicity rating XANST ([2]; 250 g ai/ha): 90 | Pre-emerge Herbicidal Activity AMBEL (phytotoxicity rating, scale 0-100) ([3]; 63 g ai/ha): 100 | Pre-emerge Herbicidal Activity AMBEL (phytotoxicity rating, scale 0-100) ([3]; 250 g ai/ha): 100 | pest or weed control at 63 g/ha ([4]; 63 g ai/ha): 0% | pest or weed control at 250 g/ha ([4]; 250 g ai/ha): 40% | Post-emerge Herbicidal Activity AMBEL ([5]; 63 g ai/ha): 50 | Post-emerge Herbicidal Activity AMBEL ([5]; 250 g ai/ha): 90 | pest or weed control at 63 g/ha ([6]; 63 g ai/ha): 100% | pest or weed control at 250 g/ha ([6]; 250 g ai/ha): 100% | pre-emerge herbicidal activity (weed species): high level of activity
